Assay results taken from patent publication US7282593B2, “Withanamide and withanolide compositions and method of use thereof” (Board of Trustees of Michigan State University, priority 2003, dated 2007).

The compounds below were run on lipid peroxidation in large unilamellar vesicles (LUVs) (assay: Inhibition of lipid peroxidation in large unilamellar vesicles (liposome) model system). Conditions: at 0.5 μg/mL; vs DMSO control at 21 min.
Procedure: Fluorescence intensity was monitored for 21 minutes at intervals of 3 minutes. The percentage of inhibition represented was calculated with respect to DMSO control at 21 min. The concentrations of compounds tested were 1-3, 5 and 9 at 1 μg/mL; 4, 6-8 at 0.5 μg/mL; 15 at 100 μg/mL; 16 at 50 μg/mL; 17 at 10 μg/mL. Commercial antioxidants BHA, BHT and TBHQ were tested at 1 μg/mL. Data represented indicates the mean ± one standard deviation (n=2).
Compounds tested were 10 and 13 at 100 μg/mL; 12 and 11 were at 10 and 50 μg/mL, respectively. Data represented indicates the mean ± one standard deviation (n=2).
The liposome suspension was prepared by mixing the phospholipid 1-stearoyl-2-linoleoyl-sn-glycero-3-phosphocoline (SLPC) and a fluorescence probe [3-[p-(6-phenyl)-1,3,5-hexatrienylph-enylpropionic acid (DPH-PA). The final assay volume was 2 mL and consisted HEPES (100 μL), 1M NaCl (200 μL), N2-sparged water (1.64 ml), test sample or DMSO (20 μL) and liposome suspension (20 μL). The peroxidation was initiated by the addition of 20 μl of FeCl2. […] The fluorescence was monitored at 0, 1, 3 and every 3 min up to 21 min using a Turner Model 450 Digital fluorometer. The decrease in fluorescence intensity over the time (21 min) indicated the rate of peroxidation. The percentage of lipid peroxidation was calculated with respect to DMSO solvent control. Stock solutions of the samples were prepared at 100 μg/ml and diluted further for the assay.

First: Withanamide H [Compound 8]
Second: Withanamide G [Compound 7]
The “inhibition of lipid peroxidation” value of the first is higher: 90% for the first, 82% for the second.

Withanamide F [Compound 6] was tested, and the “inhibition of lipid peroxidation” value was 85%.

Same assay, conditions: at 1 μg/mL; vs DMSO control at 21 min

Going from COc1ccc(O)c(C(C)(C)C)c1 [BHA, butylated hydroxyanisole, reference compound] to Withanamide B [Compound 2], the “inhibition of lipid peroxidation” value rises from 80% to 93%.

First: Withanamide A [Compound 1]
Second: Withanamide E [Compound 5]
The “inhibition of lipid peroxidation” value of the first is higher: 98% for the first, 81% for the second.

Compared with CC(C)(C)c1cc(O)ccc1O [TBHQ, tert-butylhydroquinone, reference compound], Withanamide C [Compound 3] is lower in “inhibition of lipid peroxidation” value: 85% for the first, 79% for the second.

Going from Cc1cc(C(C)(C)C)c(O)c(C(C)(C)C)c1 [BHT, butylated hydroxytoluene, reference compound] to Withanamide D [Compound 4], the “inhibition of lipid peroxidation” value rises from 81% to 94%.

In the case of Withanamide I [Compound 9], the “inhibition of lipid peroxidation” value is reported as 86%.

Same assay, conditions: at 10 μg/mL; vs DMSO control at 21 min

First: CC1=C(C)C(=O)O[C@@H]([C@@H](C)[C@H]2CC[C@H]3[C@@H]4CC=C5C[C@@H](O[C@@H]6O[C@H](CO[C@@H]7O[C@H](CO)[C@@H](O)[C@H](O)[C@H]7O)[C@@H](O)[C@H](O)[C@H]6O)C[C@H](O)[C@]5(C)[C@H]4CC[C@]23C)C1 [Compound 12, Withanoside V]
Second: Cl.NCCc1c[nH]c2ccc(O)cc12 [Compound 16, serotonine, reference compound]
The “inhibition of lipid peroxidation” value of the first is higher: 82% for the first, 44% for the second.

Same assay, conditions: at 50 μg/mL; vs DMSO control at 21 min

Going from CC1=C(C)C(=O)O[C@@H]([C@](C)(O)[C@H]2CC[C@H]3[C@@H]4CC=C5C[C@@H](O[C@@H]6O[C@H](CO[C@@H]7O[C@H](CO)[C@@H](O)[C@H](O)[C@H]7O)[C@@H](O)[C@H](O)[C@H]6O)C[C@H](O)[C@]5(C)[C@H]4CC[C@]23C)C1 [Compound 11, withanoside VI] to COc1ccc2[nH]cc(CCN)c2c1 [Compound 15, 5-methoxyserotonine, reference compound], the “inhibition of lipid peroxidation” value falls from 86% to 30%.

Same assay, conditions: at 100 μg/mL; vs DMSO control at 21 min

Compared with CC1=C(CO)C(=O)O[C@@H]([C@@H](C)[C@H]2CC[C@H]3[C@@H]4CC=C5C[C@@H](O[C@@H]6O[C@H](CO[C@@H]7O[C@H](CO)[C@@H](O)[C@H](O)[C@H]7O)[C@@H](O)[C@H](O)[C@H]6O)C[C@H](O)[C@]5(C)[C@H]4CC[C@]23C)C1 [Compound 13, withanoside IV], CC1CC([C@](C)(O)C2CCC3C4CC=C5C[C@@H](OC6OC(COC7OC(CO)C(O)C(O)C7O)C(O)C(O)C6O)C[C@H](O)C5(C)C4CCC32C)OC(=O)C1C (stereo partly drawn) [Compound 10, 23,24-Dihydrowithanolide VI] is higher in “inhibition of lipid peroxidation” value: 25% for the first, 84% for the second.

NCCc1c[nH]c2ccccc12 [Compound 14, tryptamine, reference compound] was tested, and the “inhibition of lipid peroxidation” value was 40%.

Same assay, conditions: at 10 ppm

For CC1=C(C)C(=O)O[C@@H]([C@@H](C)[C@H]2CC[C@H]3[C@@H]4CC=C5C[C@@H](O[C@@H]6O[C@H](CO[C@@H]7O[C@H](CO)[C@@H](O)[C@H](O)[C@H]7O)[C@@H](O)[C@H](O)[C@H]6O)C[C@H](O)[C@]5(C)[C@H]4CC[C@]23C)C1 [Compound 12, Withanoside V], the “inhibition of lipid peroxidation” value was 82.5%.

Same assay, conditions: at 50 ppm

With CC1=C(C)C(=O)O[C@@H]([C@](C)(O)[C@H]2CC[C@H]3[C@@H]4CC=C5C[C@@H](O[C@@H]6O[C@H](CO[C@@H]7O[C@H](CO)[C@@H](O)[C@H](O)[C@H]7O)[C@@H](O)[C@H](O)[C@H]6O)C[C@H](O)[C@]5(C)[C@H]4CC[C@]23C)C1 [Compound 11, withanoside VI] the “lipid peroxidation inhibitory activity” value was 86%.
